Values of other authors, collected in publication PMC10817174, “Integrated drug response prediction models pinpoint repurposed drugs with effectiveness against rhabdomyosarcoma” (PLOS ONE, 2024).

Experiments:
[1] = test system: GDSC-RD cell line; details: Table S2, published drug response ref Iorio et al. (2016); cited from earlier work
[2] = test system: GDSC-SJCRH30 cell line; details: Table S2, published drug response ref Iorio et al. (2016); cited from earlier work

Row | SMILES | Iorio_RD [1] | Iorio_SJCRH30 [2]
1 | Cc1cnc(CNC(=O)c2c(=O)c3ccc(N4CCCN(C)CC4)nc3n3c2sc2ccccc23)cn1 [CX-5461] | S | R
2 | COC(=O)CNC(=O)C(=O)OC [DMOG] | R | R
3 | CC(C)(C)c1nc(-c2cccc(NS(=O)(=O)c3c(F)cccc3F)c2F)c(-c2ccnc(N)n2)s1 [Dabrafenib] | R | R
4 | COc1cccc2c1C(=O)c1c(O)c3c(c(O)c1C2=O)C[C@@](O)(C(=O)CO)C[C@@H]3O[C@H]1C[C@H](N)[C@H](O)[C@H](C)O1 [Doxorubicin] | R | R
5 | O=c1cc(CN2CCOCC2)occ1OCCCCCSc1ccnc2cc(C(F)(F)F)ccc12 [EHT-1864] | R | R
6 | CCOc1cc2ncc(C#N)c(Nc3ccc(F)c(Cl)c3)c2cc1NC(=O)/C=C/CN(C)C [EKB-569] | R | R
7 | CCCCCCCCCCCC1=C(O)C(=O)C=C(O)C1=O [Embelin] | R | R
8 | C/C(=C\c1csc(C)n1)[C@@H]1C[C@@H]2O[C@]2(C)CCC[C@H](C)[C@H](O)[C@@H](C)C(=O)C(C)(C)[C@@H](O)CC(=O)O1 [Epothilone-B] | R | R
9 | COc1cc([C@@H]2c3cc4c(cc3[C@@H](O[C@@H]3O[C@@H]5CO[C@@H](C)O[C@H]5[C@H](O)[C@H]3O)[C@H]3COC(=O)[C@H]23)OCO4)cc(OC)c1O [Etoposide] | R | R
10 | Cc1cc([N+](=O)[O-])ccc1NS(=O)(=O)c1cc(Cl)ccc1Cl [FH535] | R | R
11 | O=C(/C=C/c1cccnc1)NCCCCC1CCN(C(=O)c2ccccc2)CC1 [FK866] | R | R
12 | Cc1ccc(-c2c(C(=O)CF)n(CCCO)c3ncnc(N)c23)cc1 [FMK] | R | R
13 | Nc1[nH]nc2nnc(-c3c(-c4ccccc4)nn4ccccc34)cc12 [FR-180204] | R | R
14 | COC(=O)[C@H](CCSC)NC(=O)c1ccc(NC[C@@H](N)CS)cc1-c1ccccc1 [FTI-277] | R | R
15 | CC1=C(C(=O)Nc2cc3cn[nH]c3cc2F)C(c2ccc(C(F)(F)F)cc2)CC(=O)N1 (stereo not drawn) [GSK429286A] | R | R
16 | CCn1c(-c2nonc2N)nc2c(C#CC(C)(C)O)ncc(OC[C@H]3CCCNC3)c21 [GSK690693] | R | S
17 | COc1ncc(-c2ccc3nccc(-c4ccnnc4)c3c2)cc1NS(=O)(=O)c1ccc(F)cc1F [GSK2126458] | R | R
18 | O=C(O)c1ccc(-c2c[nH]c3ncc(-c4ccccc4)cc23)cc1C1CCCC1 [GSK-650394] | R | R
19 | CCc1cc(Nc2nccc(-c3c(-c4ccc(OC)c(C(=O)Nc5c(F)cccc5F)c4)nc4ccccn34)n2)c(OC)cc1N1CCC(N2CCN(S(C)(=O)=O)CC2)CC1 [GSK-1904529A] | R | R
20 | COc1ccc(COc2ccc(Cc3cnc(N)nc3N)cc2OC)cc1 [GW-2580] | R | R
21 | Nc1ccn([C@@H]2O[C@H](CO)[C@@H](O)C2(F)F)c(=O)n1 [Gemcitabine] | R | R
22 | CCN1CCN(Cc2ccc(NC(=O)c3ccc(C)c(/C=C/c4cnc5[nH]ccc5c4OC)c3)cc2C(F)(F)F)CC1 [HG-6-64-1] | R | R
23 | O=C(O)CNC(=O)c1c(O)c2ccccc2n(Cc2ccccc2)c1=O [IOX2] | R | R

Row | SMILES | Iorio_RD [1] | Iorio_SJCRH30 [2]
24 | Oc1ccc2ccccc2c1SSc1c(O)ccc2ccccc12 [IPA-3] | R | R
25 | c1ccc2c(CCNc3ccc(Nc4ccncc4)cc3)c[nH]c2c1 [JNJ-26854165] | R | R
26 | COc1cc(OC)cc(-c2ccc3ncc4ccc(=O)n(-c5ccc(N6CCNCC6)c(C(F)(F)F)c5)c4c3c2)c1 [JW-7-24-1] | R | R
27 | O=C(NC(COc1ccc2[nH]c(=O)[nH]c2c1)c1ccccc1)c1cccn(Cc2ccc(F)c(F)c2)c1=O (stereo not drawn) [KIN001-244] | R | R
28 | CCN1CCC(n2cc(CNc3cc(Cl)c4ncc(C#N)c(Nc5ccc(F)c(Cl)c5)c4c3)nn2)CC1 [KIN001-266] | R | R
29 | O=C(/C=C/c1ccc(CN(CCO)CCc2c[nH]c3ccccc23)cc1)NO [LAQ824] | R | R
30 | C/C(O)=C(\C#N)C(=O)Nc1cc(Br)ccc1Br [LFM-A13] | R | R
31 | Cn1cc(C2=C(c3cn(C4CCN(Cc5ccccn5)CC4)c4ccccc34)C(=O)NC2=O)c2ccccc21 [LY317615] | R | R
32 | NS(=O)(=O)OC[C@@H]1C[C@@H](n2ccc3c(N[C@H]4CCc5ccccc54)ncnc32)C[C@@H]1O [MLN4924] | R | R
33 | S=C(NCc1ccc2c(c1)OCO2)N1CCN(c2ncnc3c2oc2ccccc23)CC1 [MP470] | R | R
34 | COc1cc(N2CCC(O)CC2)ccc1Nc1cc(Nc2ccccc2S(=O)(=O)C(C)C)c2cc[nH]c2n1 [MPS-1-IN-1] | R | R
35 | Cc1ccc(NC(=O)c2ccc(CN3CCN(C)CC3)cc2)cc1Nc1nc(-c2cccnc2)cs1 [Masitinib] | R | R
36 | CO[C@@H]1[C@H](N(C)C(=O)c2ccccc2)C[C@H]2O[C@]1(C)n1c3ccccc3c3c4c(c5c6ccccc6n2c5c31)C(=O)NC4 [Midostaurin] | R | R
37 | CO[C@@]12[C@H](COC(N)=O)C3=C(C(=O)C(C)=C(N)C3=O)N1C[C@@H]1N[C@@H]12 [Mitomycin-C] | R | R
38 | CCN1CCN(Cc2ccc(NC(=O)c3ccc(C)c(Oc4ccnc5[nH]ccc45)c3)cc2C(F)(F)F)CC1 [NG-25] | R | R
39 | O=S(=O)(O)c1ccc2cc(N=Nc3cc(S(=O)(=O)O)c4cccnc4c3O)ccc2c1 [NSC-87877] | R | R
40 | Cc1ccc(C(=O)Nc2cccc(C(F)(F)F)c2)cc1Nc1nc(-c2cccnc2)nc2c1cnn2C [NVP-BHG712] | R | R
41 | COc1cccc2cc(-c3nc([C@H]4CC[C@H](C(=O)O)CC4)n4ncnc(N)c34)[nH]c12 [OSI-027] | R | R
42 | C[C@]1(O)C[C@@H](c2nc(-c3ccc4ccc(-c5ccccc5)nc4c3)c3c(N)nccn32)C1 [OSI-906] | S | S
43 | O=C(Nc1ccc(OC(F)(F)F)cc1)c1sccc1NCc1ccnc2ccccc12 [OSI-930] | R | R
44 | NCC(=O)Nc1ccc(-n2nc(C(F)(F)F)cc2-c2ccc3c(ccc4ccccc43)c2)cc1 [OSU-03012] | R | R
45 | COC1=CC(c2cc3ccccc3[nH]2)=N/C1=C\c1[nH]c(C)cc1C [Obatoclax-Mesylate] | R | R
